Read-outs that look alike come from different tables or passages of the source.

The test system of one experiment is CEM cells. The experiment in a line: Cytostatic assay, CEM. In kind it is cell-based. The note with it: for Ratio (tumor cell selectivity): ratio IC50 HeLa / IC50 CEM, Table 7. On the procedure:
(§1) To each well of a 96-well microtiter plate were added 5-7.5×10^4 cells and a given amount of the test compound. The cells were allowed to proliferate for 48 h to 96 h (depending on the nature of the cell line) at 37° C. in a humidified CO2-controlled atmosphere. At the end of the incubation period, the cells were counted in a Coulter Counter (Coulter Electronics Ltd, Harpenden Herts, United Kingdom).

For experiment [1], the system named is HeLa cervix carcinoma cells. The experiment in a line: Cytostatic assay, HeLa. It counts as cell-based, human. The procedure:
as §1

Where [2] appears, read: Homo sapiens, HeLa cells, Table 7, 5-arylthiomethyl-substituted 2-amino-3-carboxymethylthiophenes, read-out: IC50 (μM) HeLa.
[3] abbreviates: Homo sapiens, CCRF-CEM, CEM cells, Table 7, 5-arylthiomethyl-substituted 2-amino-3-carboxymethylthiophenes, read-out: IC50 (μM) CEM.
[4] abbreviates: HeLa cells, Table 7, 5-arylthiomethyl-substituted 2-amino-3-carboxymethylthiophenes, read-out: IC50 (μM) HeLa.
The mark [5] stands for this setting: Table 1b, read-out: IC50 (μM) (HeLa).
Where [6] appears, read: CEM cells, Table 7, 5-arylthiomethyl-substituted 2-amino-3-carboxymethylthiophenes, read-out: IC50 (μM) CEM.
[7] abbreviates: Table 1b, read-out: IC50 (μM) (CEM).
Setting [8] is: Homo sapiens, CCRF-CEM, Table 1a, read-out: IC50 μM (CEM).
[9] abbreviates: Homo sapiens, Table 1b, read-out: IC50 (μM) (HeLa).
[10] abbreviates: Homo sapiens, CCRF-CEM, Table 1b, read-out: IC50 (μM) (CEM).

Regarding “2-Amino-5-(2-(4-methoxyphenyl)ethyl)thiophene-3-carboxylate [TJ8]”, in the experiment on CEM cells (Table 1a, read-out: IC50 μM (CEM)), the IC50 was 31 µM.
On to `COC(=O)c1cc(CSc2ccccc2C)sc1N` [Compound D3, Methyl 2-amino-5-(o-tolylthiomethyl)thiophene-3-carboxylate], for which the IC50 in experiment [1] (setting [2]) came to 71 µM; in the experiment on CEM cells (setting [3]), 2 µM. Also, in the experiment with CEM cells, the “Ratio (tumor cell selectivity)” value turned out to be 36.
The corresponding values for `COC(=O)c1cc(CSc2ccc(Cl)cc2)sc1N` [Compound D4, Methyl 2-amino-5-((4-chlorophenylthio)methyl)thiophene-3-carboxylate] are 42 µM, 1.7 µM and 25.
The matching figures for `COC(=O)c1cc(CSc2ccccc2OC)sc1N` [Compound D6, Methyl 2-amino-5-((2-methoxyphenylthio)methyl)thiophene-3-carboxylate]: 94 µM, 17 µM and 6.
The matching figures for `COC(=O)c1ccccc1SCc1cc(C(=O)OC)c(N)s1` [Compound D7, Methyl 2-amino-5-((2-(methoxycarbonyl)phenylthio)methyl)thiophene-3-carboxylate]: 190 µM, 27 µM and 7.
`COC(=O)c1cc(CSC2CCCCC2)sc1N` [Compound D8, Methyl 2-amino-5-(cyclohexylthiomethyl)thiophene-3-carboxylate]: the IC50 in experiment [1] (setting [2]) stood at 81 µM; with CEM cells (setting [3]), 2.1 µM. Also, in the experiment on CEM cells, the “Ratio (tumor cell selectivity)” value came to 39.
On to `COC(=O)c1cc(CSc2ccc(F)cc2)sc1N` [Compound D10, Methyl 2-amino-5-((4-fluorophenylthio)methyl)thiophene-3-carboxylate], for which the figures for the IC50 (in experiment [1] (setting [2]); in the experiment on CEM cells (setting [3])) were 102 µM and 3.1 µM, respectively. Further, the “Ratio (tumor cell selectivity)” value in the experiment with CEM cells came out at 33.
For the compound `COC(=O)c1cc(CSc2ccccc2)sc1N` [TJ4, Methyl 2-amino-5-(2-(phenyl)sulfanylmethyl)thiophene-3-carboxylate], the IC50 came to 108 µM in experiment [1] (setting [4]), 108 ± 7 µM in experiment [1] (setting [5]), 1.3 µM in the experiment on CEM cells (setting [6]) and 1.3 ± 0.6 µM with CEM cells (setting [7]). Also, in the experiment on CEM cells, the “Ratio (tumor cell selectivity)” value came out at 83.
In the case of `CNc1sc(CCc2ccc(OC)cc2)cc1C(=O)OC` [TJ6A, Methyl 2-methylamino-5-(2-(4-methoxyphenyl)ethyl)thiophene-3-carboxylate], the IC50 in the experiment with CEM cells (setting [8]) is 23 µM.
Still for that read-out and setting: as for `COC(=O)c1cc(CCc2ccc(OC)cc2)sc1N(C)C` [TJ6B, Methyl 2-dimethylamino-5-(2-(4-methoxyphenyl)ethyl)thiophene-3-carboxylate], the figure is 18 µM; as for `COC(=O)c1csc(CCc2ccc(OC)cc2)c1` [TJ7, Methyl 5-(2-(4-methoxyphenyl)ethyl)thiophene-3-carboxylate], 87 µM; as for `COc1ccc(CCc2cc(C(N)=O)c(N)s2)cc1` [TJ9, 2-Amino-5-(2-(4-methoxyphenyl)ethyl)thiophene-3-carboxamide], 39 µM.
Still for that read-out and setting: the figure for `CNC(=O)c1cc(CCc2ccc(OC)cc2)sc1N` [TJ19, N-Methyl 2-amino-5-(2-(4-methoxyphenyl)ethyl)thiophene-3-carboxamide] is 31 µM.
For the compound `COC(=O)c1cc(CSc2ccc(OC)cc2)sc1N1C(=O)c2ccccc2C1=O` [TJ21, Methyl 2-phthalimido-5-(2-(4-methoxyphenyl)sulfanylmethyl)thiophene-3-carboxylate], the IC50 worked out at 112 ± 2 µM in experiment [1] (setting [5]) and 4.9 ± 1.4 µM in the experiment with CEM cells (setting [7]).
As to `COC(=O)c1cc(CSc2ccc(OC)cc2)sc1N` [TJ22, Methyl 2-amino-5-(2-(4-methoxyphenyl)sulfanylmethyl)thiophene-3-carboxylate], the IC50 amounted to 58 µM in experiment [1] (setting [4]), 58 ± 1 µM in experiment [1] (setting [5]), 0.62 µM in the experiment with CEM cells (setting [6]) and 0.62 ± 0.33 µM with CEM cells (setting [7]). In the experiment on CEM cells, the “Ratio (tumor cell selectivity)” value was 93.
For the compound `COC(=O)c1cc(COc2ccc(OC)cc2)sc1N` [TJ25, Methyl 2-amino-5-(2-(4-methoxyphenyl)oxymethyl)thiophene-3-carboxylate], the IC50 in experiment [1] (setting [5]) was determined as 68 ± 13 µM; with CEM cells (setting [7]) it was 43 ± 13 µM.
The matching figures for `COC(=O)c1cc(CNc2ccc(OC)cc2)sc1N` [TJ51, Methyl 2-amino-5-(2-(4-methoxyphenyl)aminomethyl)thiophene-3-carboxylate]: 78 ± 15 µM and 96 ± 16 µM.
Consider `COC(=O)c1cc(CSc2cccc(C(=O)O)c2)sc1N` [TJ53, 3-((5-amino-4-(methoxycarbonyl)thiophen-2-yl)methylthio)benzoic acid], for which the IC50 was found to be 75 µM in experiment [1] (setting [2]) and 124 µM in the experiment on CEM cells (setting [3]). In addition, the “Ratio (tumor cell selectivity)” value in the experiment with CEM cells was “≦1”.
Take `COC(=O)c1cc(CSc2cccc(C)c2)sc1N` [TJ54P, Methyl 2-amino-5-(2-(3-methylphenyl)sulfanylmethyl)thiophene-3-carboxylate]: the IC50 in experiment [1] (setting [4]) came out at 108 µM; in experiment [1] (setting [5]) it was 108 µM; in the experiment on CEM cells (setting [6]), 4.1 µM; with CEM cells (setting [7]), 4.1 ± 1.7 µM. Further, in the experiment with CEM cells, the “Ratio (tumor cell selectivity)” value stood at 26.
As for `COC(=O)c1cc(CSc2cccc(C)c2)sc1N1C(=O)c2ccccc2C1=O` [TJ54SM, Methyl 2-phthalimido-5-(2-(3-methylphenyl)sulfanylmethyl)thiophene-3-carboxylate], the IC50 turned out to be 121 ± 13 µM in experiment [1] (setting [5]) and 6.9 ± 0.7 µM in the experiment with CEM cells (setting [7]).
In the case of `COC(=O)c1cc(CSc2ccc(C)cc2)sc1N` [TJ55, Methyl 2-amino-5-((4-methylphenylthio)methyl)thiophene-3-carboxylate], the IC50 was 72 µM in experiment [1] (setting [2]), 72 ± 30 µM in experiment [1] (setting [9]), 1.5 µM in the experiment on CEM cells (setting [3]) and 1.5 ± 0.3 µM with CEM cells (setting [10]). Besides, in the experiment on CEM cells, the “Ratio (tumor cell selectivity)” value is listed as 48.
As for `COC(=O)c1cc(CSCc2ccccc2)sc1N` [TJ57, Methyl 2-amino-5-(2-(phenyl)methylsulfanylmethyl)thiophene-3-carboxylate], the IC50 in experiment [1] (setting [4]) was found to be 61 µM; in experiment [1] (setting [5]), 61 ± 38 µM; in the experiment on CEM cells (setting [6]), 3.5 µM; in the experiment on CEM cells (setting [7]) it was 3.5 ± 1.1 µM. Besides, the “Ratio (tumor cell selectivity)” value in the experiment with CEM cells is given as 17.
As for `COC(=O)c1cc(CSc2ccccc2)sc1N1C(=O)c2ccccc2C1=O` [TJ86, Methyl 2-phthalimido-5-(2-(phenyl)sulfanylmethyl)thiophene-3-carboxylate], the IC50 stood at 184 ± 6 µM in experiment [1] (setting [5]) and 13 ± 7 µM in the experiment on CEM cells (setting [7]).
For the compound `COC(=O)c1cc(Cc2ccccc2)sc1N` [TJ109, Methyl 2-amino-5-benzylthiophene-3-carboxylate], the IC50 with CEM cells (setting [8]) is 8.4 µM.
For the compound `COC(=O)c1cc(CSc2ccc3ccccc3c2)sc1N` [TJ113, Methyl 2-amino-5-((naphthalen-2-ylthio)methyl)thiophene-3-carboxylate], the IC50 in experiment [1] (setting [2]) came to 74 µM; in experiment [1] (setting [9]), 74 ± 6 µM; with CEM cells (setting [3]), 0.9 µM; in the experiment with CEM cells (setting [10]), 0.9 ± 0.04 µM. Also, the “Ratio (tumor cell selectivity)” value in the experiment with CEM cells is given as 82.
The corresponding values for `COC(=O)c1cc(CSCc2ccco2)sc1N` [TJ117, Methyl 2-amino-5-((furan-2-ylmethylthio)methyl)thiophene-3-carboxylate] are 102 µM, 102 ± 6 µM, 4.9 µM, 4.9 ± 0.1 µM and 21.
The matching figures for `COC(=O)c1cc(CSCc2cccs2)sc1N` [TJ118, Methyl 2-amino-5-((thiophen-2-ylmethylthio)methyl)thiophene-3-carboxylate]: 99 µM, 99 ± 5 µM, 3.3 µM, 3.3 ± 0.9 µM and 30.
Regarding `CCCCSCc1cc(C(=O)OC)c(N2C(=O)c3ccccc3C2=O)s1` [TJ119, Methyl 2-phthalimido-5-(2-(butyl)sulfanylmethyl)thiophene-3-carboxylate], the IC50 was 104 ± 1 µM in experiment [1] (Table 1c, read-out: IC50 (μM) HeLa) and 6.6 ± 3.2 µM in the experiment on CEM cells (Table 1c, read-out: IC50 (μM) CEM).
As for `COC(=O)c1cc(CSc2ccccc2N)sc1N` [TJ122, Methyl 2-amino-5-((2-aminophenylthio)methyl)thiophene-3-carboxylate], the results for the IC50 (in experiment [1] (setting [2]); in the experiment with CEM cells (setting [3])) were 46 µM and 39 µM, respectively. Moreover, in the experiment on CEM cells, the “Ratio (tumor cell selectivity)” value is listed as 1.
The matching figures for `COC(=O)c1cc(CSc2ccc([N+](=O)[O-])cc2)sc1N` [TJ126, Methyl 2-amino-5-((4-nitrophenylthio)methyl)thiophene-3-carboxylate]: 16 µM, 12 µM and 1.
On to `COC(=O)c1cc(CSCc2ccc(OC)cc2)sc1N1C(=O)c2ccccc2C1=O` [TJ127, Methyl 2-phthalimido-5-(2-(4-methoxybenzyl)sulfanylmethyl)thiophene-3-carboxylate], for which the IC50 stood at 111 ± 20 µM in experiment [1] (setting [5]) and 25 ± 8 µM in the experiment on CEM cells (setting [7]).
On to `COC(=O)c1cc(CSc2ccncc2)sc1N` [TJ129, Methyl 2-amino-5-((pyridin-4-ylthio)methyl)thiophene-3-carboxylate], for which the IC50 in experiment [1] (setting [2]) is 93 µM; in the experiment with CEM cells (setting [3]), 111 µM. Also, in the experiment on CEM cells, the “Ratio (tumor cell selectivity)” value was 1.

Usually IC50 stands for the concentration at which inhibition is half-maximal.

The values are drawn from patent US9278958B2, “Anti-cancer compounds” (KATHOLIEKE UNIVERSITEIT LEUVEN, priority 2012, dated 2016).
